Measurements published in ChEMBL document CHEMBL1909046, “DrugMatrix in vitro pharmacology data”.

Legend:
[1] = target: T1, Type-2 angiotensin II receptor (Homo sapiens, UniProt P50052); type: cell-based; settings: cho-k1; note: in other assays of this panel Not Active means under 50% inhibition at 10 µM
T1 sequence (P50052 whole entry): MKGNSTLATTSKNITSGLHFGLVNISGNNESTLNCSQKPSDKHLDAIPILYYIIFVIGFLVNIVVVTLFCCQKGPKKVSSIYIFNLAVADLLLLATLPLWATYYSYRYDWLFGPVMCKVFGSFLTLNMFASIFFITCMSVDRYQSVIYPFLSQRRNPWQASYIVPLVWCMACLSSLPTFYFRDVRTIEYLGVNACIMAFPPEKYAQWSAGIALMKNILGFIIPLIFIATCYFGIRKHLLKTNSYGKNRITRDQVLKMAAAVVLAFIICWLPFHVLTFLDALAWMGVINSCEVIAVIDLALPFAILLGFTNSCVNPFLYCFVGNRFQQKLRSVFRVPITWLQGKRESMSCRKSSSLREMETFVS

[2] = target: Sigma non-opioid intracellular receptor 1 (Homo sapiens, UniProt Q99720); experiment: DRUGMATRIX: Sigma1 radioligand binding (ligand: [3H] Haloperidol); type: cell membranes, Jurkat, Membrane; settings: Not Active = under 50% inhibition at 10 µM; for Ki: read-out: Ki
Sigma non-opioid intracellular receptor 1, sequence (Q99720 whole entry): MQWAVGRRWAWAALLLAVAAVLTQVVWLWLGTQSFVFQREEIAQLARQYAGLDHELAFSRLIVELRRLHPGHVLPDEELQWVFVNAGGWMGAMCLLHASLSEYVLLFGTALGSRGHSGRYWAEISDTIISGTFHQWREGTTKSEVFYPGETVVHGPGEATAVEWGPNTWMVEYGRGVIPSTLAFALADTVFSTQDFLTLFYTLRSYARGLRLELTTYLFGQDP

Histamine H2 receptor = Histamine H2 receptor (Homo sapiens, UniProt P25021); type: cell membranes, CHO-K1, Membrane; note: in other assays of this panel Not Active means under 50% inhibition at 10 µM
Histamine H2 receptor, sequence (P25021 whole entry): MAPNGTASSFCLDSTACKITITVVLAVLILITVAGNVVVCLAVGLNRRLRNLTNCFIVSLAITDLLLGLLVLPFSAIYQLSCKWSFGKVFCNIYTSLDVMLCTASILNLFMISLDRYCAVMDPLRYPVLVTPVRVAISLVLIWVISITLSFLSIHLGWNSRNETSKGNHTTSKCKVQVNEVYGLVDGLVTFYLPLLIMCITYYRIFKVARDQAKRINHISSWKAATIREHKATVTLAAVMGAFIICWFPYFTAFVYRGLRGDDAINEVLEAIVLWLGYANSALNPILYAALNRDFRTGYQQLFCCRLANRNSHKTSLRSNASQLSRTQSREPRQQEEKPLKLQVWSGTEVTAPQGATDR

Melanocortin receptor 5 = Melanocortin receptor 5 (Homo sapiens, UniProt P33032); type: cell membranes, HEK293, Membrane; note: in other assays of this panel Not Active means under 50% inhibition at 10 µM
Melanocortin receptor 5, sequence (P33032 whole entry): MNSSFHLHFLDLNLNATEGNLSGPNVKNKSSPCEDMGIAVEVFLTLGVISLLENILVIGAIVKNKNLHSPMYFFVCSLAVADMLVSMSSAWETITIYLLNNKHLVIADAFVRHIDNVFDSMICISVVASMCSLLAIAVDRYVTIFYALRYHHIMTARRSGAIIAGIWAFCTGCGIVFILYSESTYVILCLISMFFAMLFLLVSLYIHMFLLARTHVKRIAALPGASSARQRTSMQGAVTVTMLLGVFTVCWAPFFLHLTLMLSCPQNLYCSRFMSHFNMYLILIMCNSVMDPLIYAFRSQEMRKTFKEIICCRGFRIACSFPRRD

[3] = target: T2, Alpha-2C adrenergic receptor (Homo sapiens, UniProt P18825); experiment: DRUGMATRIX: Adrenergic Alpha-2C radioligand binding (ligand: [3H] MK-912); type: cell membranes, Sf9, Membrane
T2 sequence (P18825 whole entry): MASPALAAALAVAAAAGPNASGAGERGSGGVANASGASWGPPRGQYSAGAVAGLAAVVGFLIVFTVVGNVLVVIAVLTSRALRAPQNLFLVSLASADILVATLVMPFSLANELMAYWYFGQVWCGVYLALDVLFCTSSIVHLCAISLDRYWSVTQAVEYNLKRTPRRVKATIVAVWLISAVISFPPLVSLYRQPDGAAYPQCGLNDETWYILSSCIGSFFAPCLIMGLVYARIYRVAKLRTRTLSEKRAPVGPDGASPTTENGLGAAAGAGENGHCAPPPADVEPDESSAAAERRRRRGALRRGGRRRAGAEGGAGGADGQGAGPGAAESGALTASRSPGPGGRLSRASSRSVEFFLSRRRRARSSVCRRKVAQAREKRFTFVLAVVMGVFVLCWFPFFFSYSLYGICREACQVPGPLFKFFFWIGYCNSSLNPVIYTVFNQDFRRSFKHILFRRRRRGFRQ

[4] = DRUGMATRIX: Glutamate, AMPA radioligand binding (ligand: [3H] AMPA); type: cell membranes, Rattus norvegicus, Wistar, Cerebral cortex, Membrane; settings: Not Active = under 50% inhibition at 10 µM

| SMILES | IC50 [1] | IC50 ([2]; read-out: IC50) [nM] | Ki [2] [nM] | IC50 (Histamine H2 receptor; cho-k1) | IC50 (Melanocortin receptor 5; hek293) | IC50 ([3]; sf9) | IC50 ([2]; jurkat) | IC50 [4] | Ki [4] | IC50 (Histamine H2 receptor; read-out: IC50) [µM] | Ki (Histamine H2 receptor; read-out: Ki) [µM] | IC50 (Melanocortin receptor 5; read-out: IC50) [µM] | Ki (Melanocortin receptor 5; read-out: Ki) [µM] | IC50 ([3]; read-out: IC50) [nM] | Ki ([3]; read-out: Ki) [nM] |
| --- | --- | --- | --- | --- | --- | --- | --- | --- | --- | --- | --- | --- | --- | --- | --- |
| CN1CCN(CCCN2c3ccccc3Sc3ccc(Cl)cc32)CC1 [PROCHLORPERAZINE] | Not Active | 54 | 23 | Not Active | Not Active |  |  |  |  |  |  |  |  |  |  |
| CO[C@H]1/C=C/O[C@@]2(C)Oc3c(C)c(O)c4c(O)c(c(/C=N/N5CCN(C)CC5)c(O)c4c3C2=O)NC(=O)/C(C)=C\C=C\[C@H](C)[C@H](O)[C@@H](C)[C@@H](O)[C@@H](C)[C@H](OC(C)=O)[C@@H]1C [RIFAMPIN] | Not Active |  |  | Not Active | Not Active | Not Active | Not Active | Not Active | Not Active |  |  |  |  |  |  |
| Nc1nc2ccc(OC(F)(F)F)cc2s1 [RILUZOLE] | Not Active |  |  | Not Active | Not Active | Not Active | Not Active | Not Active | Not Active |  |  |  |  |  |  |
| Cc1nc2n(c(=O)c1CCN1CCC(c3noc4cc(F)ccc34)CC1)CCCC2 [RISPERIDONE] | Not Active |  |  |  | Not Active |  |  |  |  |  |  |  |  |  |  |
| C=CCC1(C(C)CCC)C(=O)NC(=O)NC1=O (stereo not drawn) [SECOBARBITAL] | Not Active |  |  | Not Active | Not Active | Not Active | Not Active | Not Active | Not Active |  |  |  |  |  |  |
| C[C@@H]1CN(c2c(F)c(N)c3c(=O)c(C(=O)O)cn(C4CC4)c3c2F)C[C@H](C)N1 [SPARFLOXACIN] | Not Active |  |  | Not Active | Not Active | Not Active | Not Active | Not Active | Not Active |  |  |  |  |  |  |
| Cc1noc(NS(=O)(=O)c2ccc(N)cc2)c1C [SULFISOXAZOLE] | Not Active |  |  | Not Active | Not Active | Not Active | Not Active | Not Active | Not Active |  |  |  |  |  |  |
| CSc1ccc(/C=C2/C(C)=C(CC(=O)O)c3cc(F)ccc32)cc1 [SULINDAC SULFIDE] | Not Active |  |  | Not Active | Not Active | Not Active | Not Active | Not Active | Not Active |  |  |  |  |  |  |
| Nc1c2c(nc3ccccc13)CCCC2 [TACRINE] | Not Active |  |  | Not Active | Not Active | Not Active | Not Active | Not Active | Not Active |  |  |  |  |  |  |
| CC/C(=C(\c1ccccc1)c1ccc(OCCN(C)C)cc1)c1ccccc1 [TAMOXIFEN] | Not Active |  |  |  |  | Not Active |  |  |  | 9.4 | 9.24 | 26.5 | 24.9 |  |  |
| CC(C)N1CCN(c2ccc(OCC3COC(Cn4cncn4)(c4ccc(Cl)cc4Cl)O3)cc2)CC1 (stereo not drawn) [TERCONAZOLE] | Not Active | 508 | 214 | Not Active | Not Active |  |  | Not Active | Not Active |  |  |  |  | 418 | 61 |
| Nc1nc2nc[nH]c2c(=S)[nH]1 [THIOGUANINE] | Not Active |  |  | Not Active | Not Active | Not Active | Not Active | Not Active | Not Active |  |  |  |  |  |  |
| Cc1cccc(N(C)C(=S)Oc2ccc3ccccc3c2)c1 [TOLNAFTATE] | Not Active |  |  | Not Active | Not Active | Not Active | Not Active | Not Active | Not Active |  |  |  |  |  |  |
| NC[C@H]1CC[C@H](C(=O)O)CC1 [TRANEXAMIC ACID] | Not Active |  |  | Not Active | Not Active | Not Active | Not Active | Not Active | Not Active |  |  |  |  |  |  |
| CC1(C)O[C@@H]2C[C@H]3[C@@H]4CCC5=CC(=O)C=C[C@]5(C)[C@@]4(F)[C@@H](O)C[C@]3(C)[C@]2(C(=O)CO)O1 [TRIAMCINOLONE ACETONIDE] | Not Active |  |  | Not Active | Not Active | Not Active | Not Active | Not Active | Not Active |  |  |  |  |  |  |
| NS(=O)(=O)c1cc2c(cc1Cl)NC(C(Cl)Cl)NS2(=O)=O (stereo not drawn) [TRICHLORMETHIAZIDE] | Not Active |  |  | Not Active | Not Active | Not Active | Not Active | Not Active | Not Active |  |  |  |  |  |  |
| Cc1c(C)c2c(c(C)c1O)CCC(C)(COc1ccc(CC3SC(=O)NC3=O)cc1)O2 (stereo not drawn) [TROGLITAZONE] | Not Active |  |  | Not Active | Not Active | Not Active | Not Active | Not Active | Not Active |  |  |  |  |  |  |
